The record followed here is patent US20260317324A1, “BIFUNCTIONAL COMPOUNDS FOR DEGRADING BRAF VIA UBIQUITIN PROTEOSOME PATHWAY” (Nurix Therapeutics, Inc., priority 2023, published 2026).

What all share (assay type): cell-based
Assay [1] concerns the target T1, BRAF D594G (Homo sapiens, UniProt P15056, D594G).
T1 construct: Horizon Discovery (HCT-116 BRAF−/− cells); host or cells: HCT-116 BRAF−/− cells, clone 63, lentiviral transduction
Put plainly: BRAF HiBiT degradation assay, C-terminal HiBiT-tagged BRAF D594G overexpressed in HCT-116 BRAF−/− cells (clone 63), Nano-Glo HiBiT Lytic assay. In a few lines:
(§1)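 Degradation assay in HCT-116 BRAF−/− cells carrying lentiviral HiBiT-tagged mutant BRAF. The readout is % protein remaining across 1 μM to 0.01 nM compound, and DC50 marks 50% remaining.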

In assay [2] the target is T2, BRAF G466V (Homo sapiens, UniProt P15056, G466V).
T2 construct: Horizon Discovery (HCT-116 BRAF−/− cells); host or cells: HCT-116 BRAF−/− cells, clone 8, lentiviral transduction
Put plainly: BRAF HiBiT degradation assay, C-terminal HiBiT-tagged BRAF G466V overexpressed in HCT-116 BRAF−/− cells (clone 8), Nano-Glo HiBiT Lytic assay. In a few lines: as §1
For orientation: The HiBiT peptide binds its large partner to form an active luciferase.

For assay [3], the target named is T3, BRAF V600E (Homo sapiens, UniProt P15056, V600E).
T3 construct: endogenous C-terminal HiBiT fusion tag on BRAF V600E allele; endogenous in cells; host or cells: A375 clone 1F10 (CRISPR-Cas9 knock-in of the HiBiT tag; parental A375 from ATCC)
Put plainly: BRAF HiBiT degradation assay, C-terminal HiBiT-tagged BRAF V600E A375 cells (clone 1F10), Nano-Glo HiBiT Lytic assay. The following applies: for Dmax: A-375. In a few lines: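 Using CRISPR-engineered A375 cells that carry a C-terminal HiBiT tag on endogenous BRAF V600E, remaining protein was quantified by lytic luminescence relative to DMSO-treated cells, with wildtype A375 as the background control. DC50 denotes the concentration giving 50% degradation.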

Assay [4] deals with T4, BRAF G469A (Homo sapiens, UniProt P15056, G469A).
T4 construct: Horizon Discovery (HCT-116 BRAF−/− cells); host or cells: HCT-116 BRAF−/− cells, clone 34, lentiviral transduction
In words: BRAF HiBiT degradation assay, C-terminal HiBiT-tagged BRAF G469A overexpressed in HCT-116 BRAF−/− cells (clone 34), Nano-Glo HiBiT Lytic assay. In a few lines:
as §1

The mark [5] stands for this setting: BRAF D594G, DC50 at 50%: fitted conc. at Y=50.
[6] abbreviates: HCT-116, BRAF D594G, percentage protein degraded at maximal compound effect relative to DMSO.
The mark [7] stands for this setting: BRAF G466V, DC50 at 50%: fitted conc. at Y=50.
Where [8] appears, read: HCT-116, BRAF G466V, percentage protein degraded at maximal compound effect relative to DMSO.
The mark [9] stands for this setting: A375 (BRAF V600E), DC50 at 50%: fitted conc. at Y=50.
Where [10] appears, read: A375 (BRAF V600E), percentage protein degraded at maximal compound effect relative to DMSO.
Where [11] appears, read: Class 2, BRAF G469A, DC50 at 50%: fitted conc. at Y=50.
Where [12] appears, read: HCT-116, Class 2, BRAF G469A, percentage protein degraded at maximal compound effect relative to DMSO.
Where [13] appears, read: BRAF D594G (Class 3), HCT-116 BRAF−/− cells, DC50 at 50% degradation.
Where [14] appears, read: BRAF D594G (Class 3), HCT-116 BRAF−/− cells, observed Dmax relative to DMSO control.
[15] abbreviates: BRAF G466V (Class 3), HCT-116 BRAF−/− cells, DC50 at 50% degradation.
The mark [16] stands for this setting: BRAF G466V (Class 3), HCT-116 BRAF−/− cells, observed Dmax relative to DMSO control.
Where [17] appears, read: A375 (BRAF V600E, Class 1), DC50 at 50% degradation.
Setting [18] is: A375 (BRAF V600E, Class 1), observed Dmax, % protein degraded relative to DMSO control.
[19] abbreviates: BRAF G469A (Class 2), HCT-116 BRAF−/− cells, DC50 at 50% degradation.
[20] abbreviates: BRAF G469A (Class 2), HCT-116 BRAF−/− cells, observed Dmax relative to DMSO control.

A value given as a limit tells only on which side of the number the result lay.

T2 sequence (P15056 whole entry G466V): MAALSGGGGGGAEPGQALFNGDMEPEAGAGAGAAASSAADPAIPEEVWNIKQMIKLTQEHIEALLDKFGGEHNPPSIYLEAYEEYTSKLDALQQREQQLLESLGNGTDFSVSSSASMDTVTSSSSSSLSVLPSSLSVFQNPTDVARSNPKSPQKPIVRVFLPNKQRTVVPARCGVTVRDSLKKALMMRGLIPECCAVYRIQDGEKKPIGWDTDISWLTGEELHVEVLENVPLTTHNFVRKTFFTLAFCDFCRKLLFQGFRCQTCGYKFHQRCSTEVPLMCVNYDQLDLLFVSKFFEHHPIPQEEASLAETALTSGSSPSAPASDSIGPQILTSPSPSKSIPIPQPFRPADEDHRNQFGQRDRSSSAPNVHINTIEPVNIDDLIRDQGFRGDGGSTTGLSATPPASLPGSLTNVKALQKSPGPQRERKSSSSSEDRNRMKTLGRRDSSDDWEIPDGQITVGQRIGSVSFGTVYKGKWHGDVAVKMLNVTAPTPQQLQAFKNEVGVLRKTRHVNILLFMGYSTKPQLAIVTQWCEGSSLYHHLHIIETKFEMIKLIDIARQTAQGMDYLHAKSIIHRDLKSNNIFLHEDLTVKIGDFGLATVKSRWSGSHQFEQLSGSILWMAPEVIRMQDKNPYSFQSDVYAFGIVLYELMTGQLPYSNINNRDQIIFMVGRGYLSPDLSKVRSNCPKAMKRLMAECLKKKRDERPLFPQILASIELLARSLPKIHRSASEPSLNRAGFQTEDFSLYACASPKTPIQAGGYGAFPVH
T3 sequence (P15056 whole entry V600E, the tested form may be a part): as the sequence (P15056 whole entry G466V) above, with V466G, V600E counted along it
T1 sequence (P15056 whole entry D594G): as the sequence (P15056 whole entry G466V) above, with V466G, D594G counted along it
T4 sequence (P15056 whole entry G469A): as the sequence (P15056 whole entry G466V) above, with V466G, G469A counted along it

Consider `CCCS(=O)(=O)Nc1cccc(-c2nc(C3CCN(C(=O)C4(C)CCN(C(=O)C5CCN(c6ccc(C7CCC(=O)NC7=O)cn6)CC5)CC4)CC3)sc2-c2ccncn2)c1F` (racemic) [Compound 181, Rac-N-[3-(2-{1-[1-(1-{5-[(3R)-2,6-dioxopiperidin-3-yl]pyridin-2-yl}piperidine-4-carbonyl)-4-methylpiperidine-4-carbonyl]piperidin-4-yl}-5-(pyrimidin-4-yl)-1,3-thiazol-4-yl)-2-fluorophenyl]propane-1-sulfonamide], for which the DC50 was less than 10 nM in assay [1] (setting [5]), less than 10 nM in assay [2] (setting [7]), less than 10 nM in assay [3] (setting [9]) and greater than 500 nM in assay [4] (setting [11]). The Dmax in assay [1] (setting [6]) was greater than 70%; in assay [2] (setting [8]), greater than 70%; in assay [3] (setting [10]), greater than 70%; in assay [4] (setting [12]) it was 30 to 70%.
For `O=C1CCC(c2ccc(N3CCC(CN4CCN(c5cc(F)c(-n6cc(-c7cc(Cl)cc(NS(=O)(=O)N8CCCC8)c7F)c(-c7ccncc7)n6)cc5F)CC4)CC3)nc2)C(=O)N1` (racemic) [Compound 354, Rac-N-{5-chloro-3-[1-(4-{4-[(1-{5-[(3R)-2,6-dioxopiperidin-3-yl]pyridin-2-yl}piperidin-4-yl)methyl]piperazin-1-yl}-2,5-difluorophenyl)-3-(pyridin-4-yl)-1H-pyrazol-4-yl]-2-fluorophenyl}pyrrolidine-1-sulfonamide], the DC50 in assay [1] (setting [13]) is less than 10 nM; in assay [2] (setting [15]), less than 10 nM; in assay [3] (setting [17]) it was less than 10 nM; in assay [4] (setting [19]) it was 10 to 50 nM. Also, the Dmax in assay [1] (setting [14]) was 30 to 70%; in assay [2] (setting [16]), greater than 70%; in assay [3] (setting [18]) it was greater than 70%; in assay [4] (setting [20]), 30 to 70%.
`CCCS(=O)(=O)Nc1cccc(-c2nc(C(C)(C)C)sc2-c2ccnc(Nc3cccc(OC4CCN(CC[C@@H]5CCN(c6ccc(C7CCC(=O)NC7=O)cn6)C5)CC4)c3)n2)c1F` (mixture of isomers) [Compound 70, N-(3-{2-tert-butyl-5-[2-({3-[(1-{2-[(3R)-1-{5-[(3RS)-2,6-dioxopiperidin-3-yl]pyridin-2-yl}pyrrolidin-3-yl]ethyl}piperidin-4-yl)oxy]phenyl}amino)pyrimidin-4-yl]-1,3-thiazol-4-yl}-2-fluorophenyl)propane-1-sulfonamide]: the DC50 in assay [1] (setting [5]) was greater than 500 nM; in assay [2] (setting [7]), greater than 500 nM; in assay [3] (setting [9]) it was 50 to 500 nM; in assay [4] (setting [11]) it was greater than 500 nM. Further, the Dmax in assay [1] (setting [6]) was 30 to 70%; in assay [2] (setting [8]) it was less than 30%; in assay [3] (setting [10]), 30 to 70%; in assay [4] (setting [12]), less than 30%.
Take `O=C1CCN(c2ccc(N3CCC(CN4CCN(c5ccc(-n6cc(-c7cc(Cl)cc(NS(=O)(=O)N8CC[C@@H](F)C8)c7F)c(-c7ccncc7)n6)cc5F)CC4)CC3)cc2)C(=O)N1` [Compound 365, (3R)—N-[5-chloro-3-(1-{4-[4-({1-[4-(2,4-dioxo-1,3-diazinan-1-yl)phenyl]piperidin-4-yl}methyl)piperazin-1-yl]-3-fluorophenyl}-3-(pyridin-4-yl)-1H-pyrazol-4-yl)-2-fluorophenyl]-3-fluoropyrrolidine-1-sulfonamide]: the DC50 in assay [1] (setting [13]) is less than 10 nM; in assay [2] (setting [15]) it was less than 10 nM; in assay [3] (setting [17]), less than 10 nM; in assay [4] (setting [19]), greater than 500 nM. The Dmax in assay [1] (setting [14]) was 30 to 70%; in assay [2] (setting [16]), 30 to 70%; in assay [3] (setting [18]), greater than 70%; in assay [4] (setting [20]), 30 to 70%.
Take `CCN(C)S(=O)(=O)Nc1cccc(-c2cn(-c3ccc(N4CCN(CC5CCN(c6ccc([C@@H]7CCC(=O)NC7=O)cn6)CC5)CC4)c(F)c3)nc2-c2ccncc2)c1F` [Compound 380, (3S)-3-(6-{4-[(4-{4-[4-(3-{[ethyl(methyl)sulfamoyl]amino}-2-fluorophenyl)-3-(pyridin-4-yl)-1H-pyrazol-1-yl]-2-fluorophenyl}piperazin-1-yl)methyl]piperidin-1-yl}pyridin-3-yl)piperidine-2,6-dione]: the DC50 was 10 to 50 nM in assay [1] (setting [13]), 50 to 500 nM in assay [2] (setting [15]), 50 to 500 nM in assay [3] (setting [17]) and greater than 500 nM in assay [4] (setting [19]). Moreover, the Dmax is 30 to 70% in assay [1] (setting [14]), 30 to 70% in assay [2] (setting [16]), greater than 70% in assay [3] (setting [18]) and 30 to 70% in assay [4] (setting [20]).
`CCCS(=O)(=O)Nc1cccc(-c2nc(C(C)(C)C)sc2-c2ccnc(Nc3ccc(C4CCN(CC5CCN(c6ccc(C(=O)NC7CCC(=O)NC7=O)cc6)CC5)CC4)cc3)n2)c1F` (racemic) [Compound 171, Rac-4-{4-[(4-{4-[(4-{2-tert-butyl-4-[2-fluoro-3-(propane-1-sulfonamido)phenyl]-1,3-thiazol-5-yl}pyrimidin-2-yl)amino]phenyl}piperidin-1-yl)methyl]piperidin-1-yl}-N-[(3R)-2,6-dioxopiperidin-3-yl]benzamide]: the DC50 was greater than 500 nM in assay [1] (setting [5]), greater than 500 nM in assay [2] (setting [7]), 50 to 500 nM in assay [3] (setting [9]) and greater than 500 nM in assay [4] (setting [11]). For the same molecule, the Dmax in assay [1] (setting [6]) was less than 30%; in assay [2] (setting [8]) it was less than 30%; in assay [3] (setting [10]), 30 to 70%; in assay [4] (setting [12]), less than 30%.
As to `O=C1CC[C@H](c2ccc(N3CCC(CN4CCN(c5ccc(-n6cc(-c7cc(Cl)cc(NS(=O)(=O)N8CC[C@@H](F)C8)c7F)c(-c7ccncc7)n6)cc5)CC4)CC3)nc2)C(=O)N1` [Compound 264, (R)—N-(5-chloro-3-(1-(4-(4-((1-(5-((R)-2,6-dioxopiperidin-3-yl)pyridin-2-yl)piperidin-4-yl)methyl)piperazin-1-yl)phenyl)-3-(pyridin-4-yl)-1H-pyrazol-4-yl)-2-fluorophenyl)-3-fluoropyrrolidine-1-sulfonamide], the DC50 in assay [1] (setting [13]), in assay [2] (setting [15]), in assay [3] (setting [17]) and in assay [4] (setting [19]) was less than 10 nM in each case. Also, the Dmax in assay [1] (setting [14]), in assay [2] (setting [16]), in assay [3] (setting [18]) and in assay [4] (setting [20]) was greater than 70% throughout.
On to `CCCS(=O)(=O)Nc1cccc(-c2nc(C(C)(C)C)sc2-c2ccnc(Nc3ccc(N4CCN(CC5CCN(c6ccc([C@@H]7CCC(=O)NC7=O)cc6)CC5)CC4)cc3)n2)c1F` [Compound 58, N-[3-(2-tert-butyl-5-{2-[(4-{4-[(1-{4-[(3S)-2,6-dioxopiperidin-3-yl]phenyl}piperidin-4-yl)methyl]piperazin-1-yl}phenyl)amino]pyrimidin-4-yl}-1,3-thiazol-4-yl)-2-fluorophenyl]propane-1-sulfonamide], for which the DC50 in assay [1] (setting [5]) was greater than 500 nM; in assay [2] (setting [7]), 50 to 500 nM; in assay [3] (setting [9]) it was 10 to 50 nM; in assay [4] (setting [11]), greater than 500 nM. Further, the Dmax was 30 to 70% in assay [1] (setting [6]), 30 to 70% in assay [2] (setting [8]), greater than 70% in assay [3] (setting [10]) and 30 to 70% in assay [4] (setting [12]).
As for `CCCS(=O)(=O)Nc1cccc(-c2nc(C3CCN(C(=O)CC4CCN(C5CCN(c6ccc7c(c6)C(=O)N(C6CCC(=O)NC6=O)C7=O)CC5)CC4)CC3)sc2-c2ccnc(N)n2)c1F` (racemic) [Compound 250, Rac-N-{3-[5-(2-aminopyrimidin-4-yl)-2-{1-[2-(1′-{2-[(3R)-2,6-dioxopiperidin-3-yl]-1,3-dioxo-2,3-dihydro-1H-isoindol-5-yl}-[1,4′-bipiperidin]-4-yl)acetyl]piperidin-4-yl}-1,3-thiazol-4-yl]-2-fluorophenyl}propane-1-sulfonamide], the DC50 in assay [1] (setting [13]) was greater than 500 nM; in assay [2] (setting [15]), greater than 500 nM; in assay [3] (setting [17]), 50 to 500 nM; in assay [4] (setting [19]), greater than 500 nM. The Dmax in assay [1] (setting [14]) was 30 to 70%; in assay [2] (setting [16]), 30 to 70%; in assay [3] (setting [18]), greater than 70%; in assay [4] (setting [20]) it was less than 30%.

Broadly, the DC50 is the concentration giving 50% degradation. Lower therefore signals a more potent degrader. In general, Dmax refers to the greatest extent of degradation seen.
